Counter-ions that a name gives are not always drawn.
What was measured:
[1] = molecular target: T1, human VAP-1 enzyme (SSAO) (Homo sapiens, UniProt Q16853); assay: Enzyme activity inhibitory effect on human VAP-1 enzyme (SSAO), radiochemical-enzyme assay with 14C-benzylamine; format: biochemical; settings: human VAP-1 (SSAO) cell extract, 14C-benzylamine 1×10^−5 mol/l, 37° C. 2 hours
T1 construct: made in house; cell extract used
T1 sequence (Q16853 1-763): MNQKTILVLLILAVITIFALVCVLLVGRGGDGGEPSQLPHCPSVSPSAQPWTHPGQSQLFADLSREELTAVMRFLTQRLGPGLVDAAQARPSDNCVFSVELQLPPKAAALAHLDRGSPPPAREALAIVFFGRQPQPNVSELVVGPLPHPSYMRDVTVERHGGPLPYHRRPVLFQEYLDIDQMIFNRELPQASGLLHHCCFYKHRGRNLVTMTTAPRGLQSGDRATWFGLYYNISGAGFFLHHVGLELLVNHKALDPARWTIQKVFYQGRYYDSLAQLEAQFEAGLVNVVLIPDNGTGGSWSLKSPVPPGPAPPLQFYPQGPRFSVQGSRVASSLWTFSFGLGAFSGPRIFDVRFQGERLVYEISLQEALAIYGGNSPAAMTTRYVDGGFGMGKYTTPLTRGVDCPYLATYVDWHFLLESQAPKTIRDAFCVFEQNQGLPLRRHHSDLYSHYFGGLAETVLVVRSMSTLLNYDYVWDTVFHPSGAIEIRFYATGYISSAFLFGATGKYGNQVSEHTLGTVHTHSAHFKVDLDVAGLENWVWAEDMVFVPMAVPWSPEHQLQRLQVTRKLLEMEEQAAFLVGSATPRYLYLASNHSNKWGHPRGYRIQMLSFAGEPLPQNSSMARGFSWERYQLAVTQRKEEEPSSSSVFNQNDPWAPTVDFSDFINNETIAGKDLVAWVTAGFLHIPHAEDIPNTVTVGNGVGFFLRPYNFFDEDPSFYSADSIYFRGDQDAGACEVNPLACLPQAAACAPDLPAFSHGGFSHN
Method: (§1) The compounds of the present invention obtained in Production Examples were examined for the enzyme activity inhibitory effect on human and rat VAP-1 enzyme (SSAO) by the following method.
(§2) The VAP-1 enzyme (SSAO) activity in both human and rat was measured by a radiochemical-enzyme assay using ^14C-benzylamine as an artificial substrate. Human or rat VAP-1 was cloned from the cDNA library and expressed in a cell. The cell extract was preincubated with a test compound solution (final concentration 1×10^−7-1×10^−11 mol/l) at room temperature for 20 minutes. Then, ^14C-benzylamine (final concentration 1×10^−5 mol/l) was added, and the mixture was incubated at a final volume of 200 μl at 37° C. for 2 hours. The enzyme reaction was stopped by addition of 2 mol/l (200 μl) citric acid. The oxidation product was extracted with 1 ml toluene/ethyl acetate (1:1), and the radioactivity thereof was measured by a liquid scintillation counter.

[2] = molecular target: T2, rat VAP-1 enzyme (SSAO) (Rattus norvegicus, UniProt O08590); assay: Enzyme activity inhibitory effect on rat VAP-1 enzyme (SSAO), radiochemical-enzyme assay with 14C-benzylamine; format: biochemical; settings: rat VAP-1 (SSAO) cell extract, 14C-benzylamine 1×10^−5 mol/l, 37° C. 2 hours
T2 construct: made in house; cell extract used
T2 sequence (O08590 1-763): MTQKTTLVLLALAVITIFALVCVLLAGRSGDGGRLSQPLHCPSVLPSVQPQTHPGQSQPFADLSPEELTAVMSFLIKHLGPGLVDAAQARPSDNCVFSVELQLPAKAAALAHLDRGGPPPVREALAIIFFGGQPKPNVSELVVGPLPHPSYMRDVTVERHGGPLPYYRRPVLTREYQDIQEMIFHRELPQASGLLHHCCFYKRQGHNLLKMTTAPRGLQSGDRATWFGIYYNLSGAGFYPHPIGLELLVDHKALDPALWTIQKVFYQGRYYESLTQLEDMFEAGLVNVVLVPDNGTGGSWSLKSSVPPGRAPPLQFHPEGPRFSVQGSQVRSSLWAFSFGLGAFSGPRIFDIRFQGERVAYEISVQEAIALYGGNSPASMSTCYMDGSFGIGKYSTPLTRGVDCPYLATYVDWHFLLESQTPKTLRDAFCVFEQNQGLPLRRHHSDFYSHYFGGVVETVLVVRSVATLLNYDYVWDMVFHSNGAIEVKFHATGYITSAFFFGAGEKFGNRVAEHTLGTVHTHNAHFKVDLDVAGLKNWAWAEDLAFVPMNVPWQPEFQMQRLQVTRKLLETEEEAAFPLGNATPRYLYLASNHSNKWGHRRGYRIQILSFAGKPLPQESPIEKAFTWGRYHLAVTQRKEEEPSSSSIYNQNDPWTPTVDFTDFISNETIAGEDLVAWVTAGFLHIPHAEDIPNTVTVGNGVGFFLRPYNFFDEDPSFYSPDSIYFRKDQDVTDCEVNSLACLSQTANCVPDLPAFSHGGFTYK
Method: as §1, §2

## CC(=O)Nc1nc(CCc2cccc(OC(=O)NN)c2)cs1 (as salt: hydrochloride)
other
  melting point: 158 to 162 °C

## CC(=O)Nc1nc(CCc2ccc(CSC(=O)NN)cc2)cs1.Cl [Production Example 34, S-(4-{2-[2-(acetylamino)-1,3-thiazol-4-yl]ethyl}benzyl) hydrazinecarbothioate hydrochloride]
[1]
  IC50: 23.2 nM
[2]
  IC50: 4.6 nM
other
  melting point: 149 to 158 °C

## CC(=O)Nc1nc(CCc2ccc(CNC(=O)NN)c(F)c2F)cs1 [Production Example 22, N-(4-{2-[2-(acetylamino)-1,3-thiazol-4-yl]ethyl}-2,3-difluorobenzyl)hydrazinecarboxamide hydrochloride]
[1]
  IC50: 5.5 nM
[2]
  IC50: 2.2 nM

## CC(=O)Nc1nc(CCc2ccc(COC(=O)NN)cc2)cs1.Cl [Production Example 2, 4-{2-[2-(acetylamino)-1,3-thiazol-4-yl]ethyl}benzyl hydrazinecarboxylate hydrochloride]
[1]
  IC50: 0.9 nM
[2]
  IC50: 0.7 nM
other
  melting point: 162 to 164 °C

## CC(=O)Nc1nc(CCc2ccc(CSC(=O)NN)s2)cs1 [Production Example 36, S-[(5-{2-[2-(acetylamino)-1,3-thiazol-4-yl]ethyl}thiophen-2-yl)methyl]hydrazinecarbothioate hydrochloride]
[1]
  IC50: 2.3 nM
[2]
  IC50: 0.6 nM

## CC(=O)Nc1nc(C(=O)Nc2ccc(CNC(=O)NN)cc2)cs1.Cl [Production Example 24, 2-(acetylamino)-N-(4-{[hydrazinocarbonyl)amino]methyl}phenyl)-1,3-thiazole-4-carboxamide hydrochloride]
[1]
  IC50: 7.3 nM
[2]
  IC50: 1 nM

## CC(=O)Nc1nc(C(=O)Oc2ccc(CCOC(=O)NN)cc2)cs1.Cl [Production Example 8, 4-{2-[(hydrazinocarbonyl)oxy]ethyl}phenyl 2-(acetylamino)-1,3-thiazole-4-carboxylate hydrochloride]
[1]
  IC50: 6.4 nM
[2]
  IC50: 1.7 nM
other
  melting point: 179 to 184 °C

## CC(=O)Nc1nc(C(=O)Oc2ccc(CCNC(=O)NN)cc2)cs1.Cl [Production Example 26, 4-{2-[(hydrazinocarbonyl)amino]ethyl}phenyl 2-(acetylamino)-1,3-thiazole-4-carboxylate hydrochloride]
[1]
  IC50: 13.3 nM
[2]
  IC50: 3.3 nM
other
  melting point: 204 to 207 °C

## CC(=O)Nc1nc(CCc2ccc(CSC(=O)NN)s2)cs1 (as salt: hydrochloride) [Production Example 36, S-[(5-{2-[2-(acetylamino)-1,3-thiazol-4-yl]ethyl}thiophen-2-yl)methyl]hydrazinecarbothioate hydrochloride]
other
  melting point: 147 to 153 °C

## CC(=O)Nc1nc(CCc2ccc(CNC(=O)NN)s2)cs1.Cl [Production Example 29, N-[2-(5-{2-[2-(acetylamino)-1,3-thiazol-4-yl]ethyl}thiophen-2-yl)methyl]hydrazinecarboxamide hydrochloride]
[1]
  IC50: 1.8 nM
[2]
  IC50: 0.6 nM
other
  melting point: 158 to 161 °C

## CC(=O)Nc1nc(CCc2ccc(COC(=O)NN)c(F)c2)cs1.Cl [Production Example 4, 4-{2-[2-(acetylamino)-1,3-thiazol-4-yl]ethyl}-2-fluorobenzyl hydrazinecarboxylate hydrochloride]
[1]
  IC50: 0.8 nM
[2]
  IC50: 0.4 nM
other
  melting point: 162 to 165 °C

## CC(=O)Nc1nc(CCc2ccc(CNC(=O)NN)c(F)c2)cs1.Cl [Production Example 20, N-(4-{2-[2-(acetylamino)-1,3-thiazol-4-yl]ethyl}-2-fluorobenzyl)hydrazinecarboxamide hydrochloride]
[1]
  IC50: 2.8 nM
[2]
  IC50: 1.6 nM
other
  melting point: 172 to 175 °C

## CC(=O)Nc1nc(CCc2ccc(CCNC(=O)NN)s2)cs1.Cl [Production Example 30, N-[2-(5-{2-[2-(acetylamino)-1,3-thiazol-4-yl]ethyl}thiophen-2-yl)ethyl]hydrazinecarboxamide hydrochloride]
[1]
  IC50: 18.8 nM
[2]
  IC50: 3.8 nM
other
  melting point: 178 to 181 °C

## CC(=O)Nc1nc(CCc2cc(C)c(CCCNC(=O)NN)s2)cs1.Cl [Production Example 33, N-[3-(5-{2-[2-(acetylamino)-1,3-thiazol-4-yl]ethyl}-3-methylthiophen-2-yl)propyl]hydrazinecarboxamide hydrochloride]
[1]
  IC50: 108 nM
[2]
  IC50: 2.1 nM
other
  melting point: 152 to 157 °C

## CC(=O)Nc1nc(CCc2cc(CCCNC(=O)NN)cs2)cs1 (as salt: hydrochloride) [Production Example 32, N-[3-(5-{2-[2-(acetylamino)-1,3-thiazol-4-yl]ethyl}thiophen-3-yl)propyl]hydrazinecarboxamide hydrochloride]
other
  melting point: 111 to 115 °C

## CC(=O)Nc1nc(CCc2ccc(CCOC(=O)NN)s2)cs1 [Production Example 14, 2-(5-{2-[2-(acetylamino)-1,3-thiazol-4-yl]ethyl}thiophen-2-yl)ethyl hydrazinecarboxylate hydrochloride]
[1]
  IC50: 5.1 nM
[2]
  IC50: 5.3 nM

## CC(=O)Nc1nc(CCc2csc(CCCOC(=O)NN)c2)cs1.Cl [Production Example 15, 3-(4-{2-[2-(acetylamino)-1,3-thiazol-4-yl]ethyl}thiophen-2-yl)propyl hydrazinecarboxylate hydrochloride]
[1]
  IC50: 13.4 nM
[2]
  IC50: 0.6 nM
other
  melting point: 150 to 153 °C

## CC(=O)Nc1nc(CCc2ccc(COC(=O)NN)s2)cs1 [Production Example 13, {5-[2-(2-acetylamino-1,3-thiazol-4-yl)ethyl]thiophen-2-yl}methyl hydrazinecarboxylate hydrochloride]
[1]
  IC50: 3.4 nM
[2]
  IC50: 0.7 nM

## CC(=O)Nc1nc(CNc2ccc(CNC(=O)NN)cc2)cs1 [Production Example 23, N-[4-({[2-(acetylamino)-1,3-thiazol-4-yl]methyl}amino)benzyl]hydrazinecarboxamide dihydrochloride]
[1]
  IC50: 16.8 nM
[2]
  IC50: 8.4 nM

## CC(=O)Nc1nc(CCc2ccc(CNC(=O)NN)cc2F)cs1 (as salt: hydrochloride)
other
  melting point: 165 to 169 °C

## CC(=O)Nc1nc(CCc2ccc(COC(=O)NN)c(F)c2F)cs1 [Production Example 6, 4-{2-[2-(acetylamino)-1,3-thiazol-4-yl]ethyl}-2,3-difluorobenzyl hydrazinecarboxylate hydrochloride]
[1]
  IC50: 1.3 nM
[2]
  IC50: 0.6 nM

## CC(=O)Nc1nc(COc2ccc(CCNC(=O)NN)cc2)cs1 [Production Example 25, N-[2-(4-{[2-(acetylamino)-1,3-thiazol-4-yl]methoxy}phenyl)ethyl]hydrazinecarboxamide trifluoroacetate]
[1]
  IC50: 48.5 nM
[2]
  IC50: 1.5 nM

## CC(=O)Nc1nc(CCc2csc(CCCNC(=O)NN)c2)cs1 (as salt: hydrochloride)
other
  melting point: 153 to 156 °C

## CC(=O)Nc1nc(C(=O)Nc2ccc(CNC(=O)NN)cc2)cs1.Cl [Production Example 24]
other
  melting point: 231 to 234 °C

Reference: patent US8507690B2, “Thiazole derivative and use thereof as VAP-1 inhibitor” (R-Tech Ueno, Ltd., priority 2008, dated 2013)
